Measurements from patent US20100305047A1, “CYCLOSPORIN DERIVATIVES FOR ENHANCING THE GROWTH OF HAIR” (ALLERGAN, INC., priority 2009, published 2010).
Starred links: 1 amine or outer side, 2 acyl side, 3 side chain; linkers in the order of their positions; H or OH if unused. Non-standard residues stand in square brackets, D forms with d. Residues, ends and D or L forms follow the SMILES beside them. ξ: configuration not given here. ξNMeBmt = C/C=C/C[C@@H](C)[C@@H](O)C(NC)C(=O)O; X1 = CN(C(SCCNC(=N)N)C(=O)[*:2])[*:1]; NMeL = CN[C@@H](CC(C)C)C(=O)O; dNMeL = CN[C@H](CC(C)C)C(=O)O; NMeV = CN[C@H](C(=O)O)C(C)C; ξNMeL = CNC(CC(C)C)C(=O)O; dAbu = CC[C@@H](N)C(=O)O

Tested on: lashes and hair around the eyes of patients
Assay: In vivo treatment: appearance of lashes and hair around the eyes of patients treated in only one eye
Design: species or system human
Details: glaucoma patients, one drop daily to one eye
Protocol: A study is initiated to systematically evaluate the appearance of lashes and hair around the eyes of patients who are administering 3-[(2-Guanidyl)-ethylthio]-cyclosporin A (the cyclosporine A derivative of Example A, above) in only one eye. The study involves 10 subjects, 5 male, 5 female, average age 70 years, (ranging from 50-94 years). All patients have glaucoma. Each subject is treated daily by the topical application of one drop of the composition of Example 3, below, to provide 3-[(2-Guanidyl)-ethylthio]-cyclosporin A at a dosage of 1.5 µg/ml/eye/day, to the region of one eye by instilling the drop onto the surface of the eye. The region of the fellow control eye is not treated with 3-[(2-Guanidyl)-ethylthio]-cyclosporin A and serves as a control. The mean duration of exposure to 3-[(2-Guanidyl)-ethylthio]-cyclosporin A prior to assessing the parameter of lash growth between the control and study eye is 129 days (range 90-254 days). Observations are made under high magnification at the slit lamp biomicroscope. Documentation of differences between the control and treatment areas is accomplished using a camera specially adapted for use with the slit lamp biomicroscope.

[1] = 1.5 µg/ml/eye/day, mean exposure 129 days, vs untreated fellow eye, slit lamp biomicroscope

Compound: C/C=C/C[C@@H](C)[C@@H](O)C1C(=O)N[C@H](CC)C(=O)N(C)C(SCCNC(=N)N)C(=O)N(C)[C@@H](CC(C)C)C(=O)N[C@H](C(C)C)C(=O)N(C)C(CC(C)C)C(=O)N[C@H](C)C(=O)N[C@@H](C)C(=O)N(C)[C@H](CC(C)C)C(=O)N(C)[C@H](CC(C)C)C(=O)N(C)[C@@H](C(C)C)C(=O)N1C (stereo partly shown) [3-[(2-Guanidyl)-ethylthio]-cyclosporin A] (cyclo(A[dNMeL][dNMeL][NMeV][ξNMeBmt][dAbu][X1][NMeL][dV][ξNMeL][dA]))
- Increased growth of vellus hair on lids (1.5 µg/ml/eye/day, mean exposure 129 days, vs untreated fellow eye, areas below and lateral to the lower lid): vellus hairs are increased in number, appear more robust and are much longer and thicker in treated than in control eyes
- Length of lashes [1]: Increased length of eyelashes is regularly observed
- Number of lashes [1]: Increased numbers of lashes are observed in the treated eye of each patient
- Perpendicular angulation of hairs (lash-like hairs above the lash line and in the medial and lateral canthal areas): the hairs are much longer, thicker and heavier. They also leave the surface of the skin at a more acute angle
